Laboratory results from US9206198B2, “Inhibitors of the renal outer medullary potassium channel” (Merck Sharp & Dohme Corp., priority 2012, dated 2015).

Experiments:
Kir1.1 (ROMK1) = Kir1.1 (ROMK1) (Homo sapiens (Human), UniProt P48048); assay: Electrophysiology Assay (whole cell voltage clamp, IonWorks Quattro); type: cell-based; details: Chinese hamster ovary cells stably expressing Kir1.1; block during voltage step to 0 mV
Procedure: Block of Kir1.1 (ROMK1) currents was examined by whole cell voltage clamp (Hamill et. al. Pfluegers Archives 391:85-100 (1981)) using the IonWorks Quattro automated electrophysiology platform (Molecular Devices, Sunnyvale, Calif.). Chinese hamster ovary cells stably expressing Kir1.1 channels were maintained in T-75 flasks in cell culture media in a humidified 10% CO2 incubator at 37° C. Prior to an experiment, Kir1.1 expression was induced by overnight incubation with 1 mM sodium butyrate. On the day of the experiment, cells were dissociated with 2.5 mL of Versene (Invitrogen 15040-066) for approximately 6 min at 37° C. and suspended in 10 mL of bath solution containing (in mM): 150 NaCl, 10 KCl, 2.7 CaCl2, 0.5 MgCl2, 5 HEPES, pH 7.4. After centrifugation, the cell pellet was resuspended in approximately 4.0 mL of bath solution and placed in the IonWorks instrument. The intracellular solution consisted of (in mM): 80 K gluconate, 40 KCl, 20 KF, 3.2 MgCl2, 3 EGTA, 5 Hepes, pH 7.4. Electrical access to the cytoplasm was achieved by perforation in 0.13 mg/mL amphotericin B for 4 min. Amphotericin B (Sigma A-4888) was prepared as a 40 mg/mL solution in DMSO. Voltage protocols and current recordings were performed using the IonWorks HT software/hardware system. Currents were sampled at 1 kHz. No correction for liquid junction potentials was used. The test pulse, consisting of a 100 ms step to 0 mV from a holding potential of −70 mV, followed by a 100 ms voltage ramp from −70 mV to +70 mV, was applied before and after a 6 min compound incubation period. Test compounds were prepared by diluting DMSO stock solutions into the bath solution at 3× the final concentration and placed in the instrument in 96-well polypropylene plates. Current amplitudes were measured using the IonWorks software. To assess compound potency, the fractional block during the voltage step to 0 mV was calculated in Microsoft Excel (Microsoft, Redmond, Calif.), and dose-response curves were fitted with Igor Pro 4.0 (WaveMetrics, Lake Oswego, Oreg.). Normally, a control compound is included to support that the assay is giving consistent results compared to previous measurements, although the control is not required to obtain the results for the test compounds.

hROMK (hKir1.1) = hROMK (hKir1.1) (Homo sapiens (Human), UniProt P48048); assay: Thallium Flux Assay (ROMK channel functional thallium flux assay, FLIPR-Tetra); type: cell-based; details: HEK293 cells stably expressing hROMK
hROMK (hKir1.1), sequence (P48048 whole entry): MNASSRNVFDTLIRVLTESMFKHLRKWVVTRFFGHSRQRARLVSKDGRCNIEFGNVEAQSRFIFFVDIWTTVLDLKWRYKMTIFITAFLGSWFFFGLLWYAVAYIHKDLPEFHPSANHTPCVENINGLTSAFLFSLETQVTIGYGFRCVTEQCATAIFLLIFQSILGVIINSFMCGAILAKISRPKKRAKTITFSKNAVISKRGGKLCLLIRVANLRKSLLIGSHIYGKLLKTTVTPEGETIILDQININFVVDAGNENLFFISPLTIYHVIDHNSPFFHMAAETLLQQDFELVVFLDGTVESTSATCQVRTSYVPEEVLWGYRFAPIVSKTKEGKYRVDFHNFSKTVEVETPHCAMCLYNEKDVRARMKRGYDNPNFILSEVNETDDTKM
Procedure: Cell Culture Conditions— HEK293 cells stably expressing hROMK (hKir1.1) were grown at 37° C. in a 10% CO2 humidified incubator in complete growth media: Dulbecco's Modified Eagle Medium supplemented with non-essential amino acids, Penicillin/Streptomycin/Glutamine, G418 and FBS. At >80% confluency, aspirate the media from the flask and rinse with 10 mL Calcium/Magnesium-free PBS. Add 5 mL of 1× trypsin (prepared in Ca/Mg Free PBS) to T-225 flask and return flask to 37° C./CO2 incubator for 2-3 minutes. To dislodge the cell, gently bang the side of the flask with your hand. Triturate the cells completely and then transfer the cells to 25 mL complete media. Centrifuge at 1,500 rpm for 6 min followed by resuspension in complete growth media and determine cell concentration. For typical re-seeding, 4E6 cells/T-225 flask will attain >80% confluency in 4 days. Under ideal growth conditions and appropriate tissue culture practices, this cell line is stable for 40-45 passages.
FluxOR Kit Components (Invitrogen F10017)
• FluxOR™ Reagent (Component A) • FluxOR™ Assay Buffer (Component B)—10× Concentrate • PowerLoad™ Concentrate (Component C)—100× Concentrate • Probenecid (Component D)—Lyophilized sample is kept at −20° C. Water soluble, 100×after solubilization in 1 mL water. Store at 4° C. • FluxOR™ Chloride-free Buffer (Component E)—5× Concentrate • Potassium sulfate (K2SO4) Concentrate (Component F)—125 mM in water. Store at 4° C. • Thallium sulfate (Tl2SO4) Concentrate (Component G)—50 mM in water. Store at 4° C. • DMSO (dimethyl sulfoxide, Component H)—1 mL (100%) Reagent Preparation: FluxOR Working Solutions • 1000× FluxOR™ Reagent: Reconstitute a vial of component A in 100 μl DMSO; Mix well; Store 10 μl aliquots at −20° C. • 1× FluxOR™ Assay Buffer: Dilute Component B 10-fold with water; Adjust pH to 7.4 with Hepes/NaOH; Filter and store at 4° C. • Probenecid/Assay Buffer: 100 mL of 1× FluxOR™ Assay Buffer; 1 mL of reconstituted component D; Store at 4° C. • Loading Buffer (per microplate): 10 μl 1000× FluxOR™ Reagent; 100 μl component C; 10 mL Probenecid/Assay Buffer • Compound Buffer (per microplate): 20 mL Probenecid/Assay Buffer; 0.3 mM ouabain (10 mM ouabain in water can be stored in amber bottle/aluminum foil at room temperature); Test compound • 1× FluxOR™ Chloride-Free Buffer: Prepare 1× working solution in water. Can be stored at room temperature • Stimulant Buffer (prepared at 5× final concentration in 1× FluxOR™ Chloride-Free Buffer): 7.5 mM Thallium sulfate and 0.75 mM Potassium sulfate (to give a final assay concentration of 3 mM Thallium 0.3 mM Potassium). Store at 4° C. when not in use. If kept sterile, this solution is good for months.
Assay Protocol—The ROMK channel functional thallium flux assay is performed in 384 wells, using the FLIPR-Tetra instrument. HEK-hKir1.1 cells are seeded in Poly-D-Lysine microplates and kept in a 37° C.-10% CO2 incubator overnight. On the day of the experiment, the growth media is replaced with the FluxOR™ reagent loading buffer and incubated, protected from light, at ambient temperature (23-25° C.) for 90 min. The loading buffer is replaced with assay buffer±test compound followed by 30 min incubation at ambient temperature, where the Thallium/Potassium stimulant is added to the microplate.
• 1. Seed HEK-hKir1.1 cells ([…] at 20,000 cells/well) in 384-well PDL coated Microplates • 2. Allow cells to adhere overnight in humidified 37° C./10% CO2 incubator • 3. Completely remove cell growth media from microplate and replace with 25 μl loading buffer • 4. Incubate Microplate at room temperature, protected form light, for 90 min • 5. Remove loading buffer and replace with 25 μl 1× Assay Buffer±test compound. • 6. Incubate microplate at room temperature, protected from light, for 30 min • 7. At FLIPR-Tetra 384: Add stimulant (Thallium/Potassium) solution to microplate and monitor fluorescence. Excitation=400 nm, Emission=460 & 580 nm. Collect data for 10 min.

Kir1.1 (ROMK1), sequence (P48048 whole entry, species assumed): as the sequence (P48048 whole entry) above

| SMILES | IC50 (Kir1.1 (ROMK1)) [nM] | IC50 (hROMK (hKir1.1)) [nM] |
| --- | --- | --- |
| Cc1c([C@H](O)CN2CCC3(CC2)CCN(C2=CC(=O)OC2)C3=O)ccc2c1COC2=O [Example 21] | 390 | 370 |
| CC1=C(N2C(=O)C3(CCN(C[C@H](O)c4ccc5c(c4C)COC5=O)CC3)CC2C)COC1=O (single isomer, unassigned) [Example 30] | 20 | 20 |
| COC1CN(C[C@H](O)c2ccc3c(c2C)COC3=O)CCC12CCN(C1=C(C)C(=O)OC1)C2=O (some centres unmarked) [Example 83] | 50 | 40 |
| Cc1c([C@@H](O)CN2CCC3(CC2)CCN(C2=CC(=O)OC2)C3=O)ccc2c1COC2=O [Example 5, 8-[(2R)-2-hydroxy-2-(4-methyl-1-oxo-1,3-dihydro-2-benzofuran-5-yl)ethyl]-2-(5-oxo-2,5-dihydrofuran-3-yl)-2,8-diazaspiro[4.5]decan-1-one] | 4 | 30 |
| CC1=C(N2CCC3(CCN(CC(O)c4ccc5c(c4C4CC4)COC5=O)CC3)C2=O)COC1=O (single isomer, unassigned) [Example 76] | 10 | 10 |
| O=C1C=C(N2CCC3(CCN(CC4OCCc5c4ccc4c5COC4=O)CC3)C2=O)CO1 (racemic) [Example 52] | 60 | 350 |
| CC1=C(N2CCC3(CCN(CC(O)c4ccc5c(c4F)COC5=O)CC3)C2=O)COC1=O (single isomer, unassigned) [Example 80] | 10 | 50 |
| CC1=C(N2CCC3(CCN(C[C@H](O)c4ccc5c(c4C)COC5=O)CC3)C2=O)COC1=O [Example 7, 8-[(2R)-2-hydroxy-2-(4-methyl-1-oxo-1,3-dihydro-2-benzofuran-5-yl)ethyl]-2-(4-methyl-5-oxo-2,5-dihydrofuran-3-yl)-2,8-diazaspiro[4.5]decan-1-one] | 10 | 20 |
| CCC1CC2(CCN(C[C@H](O)c3ccc4c(c3C)COC4=O)CC2)C(=O)N1C1=CC(=O)OC1 (single isomer, unassigned) [Example 66] | 20 | 10 |
| CC1=C(N2CCC3(CCN(CC(O)c4ccc5c(c4Cl)COC5=O)CC3)C2=O)COC1=O (single isomer, unassigned) [Example 79] | 3 | 10 |
| CCc1c(C(O)CN2CCC3(CC2)CCN(C2=C(C)C(=O)OC2)C3=O)ccc2c1COC2=O (single isomer, unassigned) [Example 75] | 10 | 30 |
| CC1=C(N2CCCC3(CCN(C[C@H](O)c4ccc5c(c4C)COC5=O)CC3)C2=O)COC1=O [Example 9, 9-[(2R)-2-hydroxy-2-(4-methyl-1-oxo-1,3-dihydro-2-benzofuran-5-yl)ethyl]-2-(4-methyl-5-oxo-2,5-dihydrofuran-3-yl)-1-oxo-2-aza-9-azoniaspiro[5.5]undecane] | 10 | 10 |
| CO[C@@H](CN1CCC2(CC1)CCN(C1=CC(=O)OC1)C2=O)c1ccc2c(c1C)COC2=O [Example 51, 8-[(2R)-2-methoxy-2-(4-methyl-1-oxo-1,3-dihydro-2-benzofuran-5-yl)ethyl]-2-(5-oxo-2,5-dihydrofuran-3-yl)-2,8-diazaspiro[4.5]decan-1-one] | 20 | 310 |
| Cc1c([C@@H](O)CN2CCC3(CC2)CC(C2CC2)N(C2=CC(=O)OC2)C3=O)ccc2c1COC2=O (single isomer, unassigned) [Example 69] | 30 | 20 |
| Cc1c([C@@H](O)CN2CCC3(CC2)CCN(C2=C(F)C(=O)OC2)C3=O)ccc2c1COC2=O [Example 22] | 4 | 30 |
| Cc1c([C@@H](O)CN2CCC3(CCCN(C4=CC(=O)OC4)C3)CC2)ccc2c1COC2=O [Example 24] | 620 | 240 |
